Columns and labels:
[1] = tested on: estrogen receptor (ER); test: ER-mediated luciferase reporter induction in T47D KBluc cells; format: cell-based, human; conditions: for % ER Induction: relative to 1nM estradiol
Protocol: Experiments testing the effect of flavonoids on estrogen receptor-mediated transcription employed T47D KBluc cells. These cells were maintained in RPMI medium with 10% FBS, penicillin (100 U/mL), and streptomycin (100 μg/mL). For reporter gene experiments, cells were detached as above and replated at 50% confluency in phenol red-free RPMI media with 10% charcoal-stripped FBS and antibiotics (day one). All subsequent steps used phenol red-free medium and trypsin. On day three, the medium was replaced with fresh medium. On day five, cells were washed with PBSE, detached, resuspended, diluted, and replated in the phenol red-free RPMI with charcoal-stripped serum (50,000 cells per well as above).
(§1) For all cell lines, cell harvesting and the luminescence assay for alkaline phosphatase and/or luciferase were performed as previously described in detail. Each condition was performed in quadruplicate. […] Percent inhibition is 100 minus the percent induction.

[2] = tested on: estrogen receptor (ER); parameters: method as in PMID 11925457; conditions: previous report; cited from earlier work
[3] = target: T1, human AR (Homo sapiens, UniProt P10275); test: AR-mediated induction of PSA-luciferase reporter by R1881 in HeLa13 cells; format: cell-based; conditions: R1881 1.0 nM, read-out: % Inhibition of AR-Mediated Gene Induction
T1 construct: expressed in transfected cells; host or cells: HeLa13 (HeLa 13)
T1 sequence (P10275 1-920): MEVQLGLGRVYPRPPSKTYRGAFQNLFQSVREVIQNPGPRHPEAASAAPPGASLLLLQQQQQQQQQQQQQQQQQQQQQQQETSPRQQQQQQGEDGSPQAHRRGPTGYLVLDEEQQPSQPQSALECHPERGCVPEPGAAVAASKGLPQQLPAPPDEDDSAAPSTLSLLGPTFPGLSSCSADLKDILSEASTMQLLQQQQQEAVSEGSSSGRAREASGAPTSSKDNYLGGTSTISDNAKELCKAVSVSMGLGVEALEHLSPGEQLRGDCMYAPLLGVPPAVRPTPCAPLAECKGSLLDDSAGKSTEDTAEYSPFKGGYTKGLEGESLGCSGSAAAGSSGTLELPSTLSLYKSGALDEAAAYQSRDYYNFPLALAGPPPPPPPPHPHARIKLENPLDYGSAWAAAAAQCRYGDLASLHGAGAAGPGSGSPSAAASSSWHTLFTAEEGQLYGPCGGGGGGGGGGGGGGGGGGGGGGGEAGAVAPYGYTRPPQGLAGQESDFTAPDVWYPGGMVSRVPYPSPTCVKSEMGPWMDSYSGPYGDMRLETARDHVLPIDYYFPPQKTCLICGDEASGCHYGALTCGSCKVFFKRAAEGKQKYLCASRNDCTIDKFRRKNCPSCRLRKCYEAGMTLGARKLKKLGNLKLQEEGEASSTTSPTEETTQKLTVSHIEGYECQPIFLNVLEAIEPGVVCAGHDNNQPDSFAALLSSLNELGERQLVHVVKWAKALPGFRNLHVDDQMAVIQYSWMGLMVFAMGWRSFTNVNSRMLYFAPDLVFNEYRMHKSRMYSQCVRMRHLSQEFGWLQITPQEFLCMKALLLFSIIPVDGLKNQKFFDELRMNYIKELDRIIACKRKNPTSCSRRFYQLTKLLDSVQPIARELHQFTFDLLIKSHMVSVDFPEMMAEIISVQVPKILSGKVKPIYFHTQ
From the text: (§2) The engineered T47D breast cancer cell lines employed for the assessment of flavonoid activity on glucocorticoid receptor (GR) and progesterone receptor (PR) signaling permitted the facile quantitation transcription of both an endogenous gene and a stably integrated reporter gene. […] The T47D K5pLuc cell line responds to progestins via induction of a stably integrated cytokeratin 5-luciferase reporter gene. […] For assessment of the effect of the test compounds on androgen receptor (AR) signaling, we used the HeLa13 cell line engineered to stably express human AR and a PSA-luciferase reporter gene containing a 4× multimerized PSA upstream enhancer ARE1 linked to the E4 TATA box and luciferase gene.
Experiments testing the effect of flavonoid on androgen receptor-mediated transcription employed HeLa 13 cells maintained in MEM medium supplemented with 10% FBS, 0.5 mg/mL G418, 0.05 mg/mL Hygromycin B, […], and streptomycin (100 μg/mL). For reporter gene experiments, cells were replated at a 1:5 dilution in MEM medium with 5% charcoal-stripped FBS and the antibiotics mentioned above. The medium was changed the next day. After 48 h, the cells were washed with PBSE, detached with phenol red-free trypsin, pelleted, resuspended and plated in 96 well plates as above. Hormone and flavonoid treatments were performed as described above with the HeLa 13 medium and charcoal-stripped FBS. When treated with hormone, the synthetic androgen, R1881, was used at 1.0 nM. Hormone treatment was for 20 h at which time cells were harvested for assay of luciferase.
as §1

[4] = target: T2, progesterone receptor (PR) (Homo sapiens, UniProt P06401); test: PR-mediated induction of transcription by R5020 in T47D K5pLuc cells (luciferase reporter and endogenous alkaline phosphatase); format: cell-based; conditions: T47D, 8 µM, R5020 1.0 nM
T2 sequence (P06401 679-933 limits assumed): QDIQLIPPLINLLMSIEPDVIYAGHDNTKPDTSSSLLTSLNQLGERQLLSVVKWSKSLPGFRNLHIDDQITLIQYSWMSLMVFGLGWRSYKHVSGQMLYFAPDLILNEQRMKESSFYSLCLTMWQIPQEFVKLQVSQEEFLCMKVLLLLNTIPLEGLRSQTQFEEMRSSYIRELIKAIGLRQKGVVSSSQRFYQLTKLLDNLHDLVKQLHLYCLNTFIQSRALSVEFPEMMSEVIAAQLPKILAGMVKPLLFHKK
From the text: as §2
Experiments testing the effect of flavonoids on progesterone receptor-mediated transcription employed T47D K5pluc cells. The protocol was the same as that for T47D (A1-2) cells except the medium was Dulbecco’s Modified Eagle’s Medium supplemented with 10% FBS, insulin (10 nM), puromycin 200 ng/mL, nonessential amino acids, penicillin (100 U/mL), and streptomycin (100 μg/mL). When treated with hormone, the synthetic progestin, R5020, was used at 1.0 nM. Hormone treatment was for 20 h at which time cells were harvested for assay of alkaline phosphatase and luciferase.
as §1

| EC50 lower than that of 6,4′-dihydroxyflavone ([1]; comparison at lower concentrations) | inhibition at 1 µM [3] [%] | inhibition at 4 µM [3] [%] | inhibition at 8 µM ([4]; AP (alkaline phosphatase)) [%] | inhibition at 8 µM ([4]; LUC (luciferase)) [%] | SMILES | % ER Induction ([1]; 1 µM) [%] | % ER Induction ([1]; 4 µM) [%] | affinity for ER greater than that of 6,4′-dihydroxyflavone [2] [fold] |
| --- | --- | --- | --- | --- | --- | --- | --- | --- |
| 2–3 fold | 53 | 71 |  |  | O=c1c(O)c(-c2ccc(O)cc2)oc2ccc(O)cc12 [3,6,4′-trihydroxyflavone] | 102 | 108 | 3 |
|  |  | 22 | 42 | -88 | Oc1ccc(C2COc3cc(O)ccc3C2)cc1 (stereo not drawn) [7,4′-dihydroxyisoflavan] | 96 | 84 |  |
|  | 32 | 39 |  |  | COc1ccc(-c2cc(=O)c3cc(O)ccc3o2)cc1 [6-hydroxy,4′-methoxyflavone] | 63 | 131 |  |
